Data: PubChem BioAssay (NCI)
Values joined by “and” are separate entries in the source; they are usually repeats but may differ in a detail not shown here. Equal entries are not always repeated.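 Results reflect a 48-hour exposure of cells in 96-well plates to compound at five concentrations. The concentration for 50% growth inhibition is given as GI50. The concentration for full growth arrest is given as TGI.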

What was measured:
Test in all cases: NCI tumour cell line growth inhibition, 48 h
OVCAR-4 ovarian = tested on: OVCAR-4 ovarian
M14 melanoma = tested on: M14 melanoma
KM12 colon = tested on: KM12 colon
A498 renal = tested on: A498 renal
OVCAR-3 ovarian = tested on: OVCAR-3 ovarian
UACC-257 melanoma = tested on: UACC-257 melanoma
CAKI-1 renal = tested on: CAKI-1 renal
SK-OV-3 ovarian = tested on: SK-OV-3 ovarian
SK-MEL-28 melanoma = tested on: SK-MEL-28 melanoma
NCI-H460 lung = tested on: NCI-H460 lung

| SMILES | GI50 (OVCAR-4 ovarian) | TGI (OVCAR-4 ovarian) | GI50 (M14 melanoma) | TGI (M14 melanoma) | GI50 (KM12 colon) | TGI (KM12 colon) | GI50 (A498 renal) | TGI (A498 renal) | GI50 (OVCAR-3 ovarian) | TGI (OVCAR-3 ovarian) | GI50 (UACC-257 melanoma) | TGI (UACC-257 melanoma) | GI50 (CAKI-1 renal) | TGI (CAKI-1 renal) | GI50 (SK-OV-3 ovarian) | TGI (SK-OV-3 ovarian) | GI50 (SK-MEL-28 melanoma) | TGI (SK-MEL-28 melanoma) | TGI (NCI-H460 lung) | GI50 (NCI-H460 lung) |
| --- | --- | --- | --- | --- | --- | --- | --- | --- | --- | --- | --- | --- | --- | --- | --- | --- | --- | --- | --- | --- |
| Cc1cc(N2CCN(C)CC2)nc(NCc2cc(Nc3ccnc4cc(Cl)ccc34)ccc2F)n1 | 1.42 µM | 6.13 µM | 2 µM | 3.86 µM | 3.2 µM | > 100 µM | 1.52 µM | 4.03 µM | 2 µM | 4.15 µM | 2.11 µM | 3.9 µM | 2.68 µM | 8.61 µM | 2.64 µM | 6.27 µM | 1.67 µM | 3.28 µM |  |  |
| CN1C(OCc2ccccc2)c2c(ccc3c2OCO3)C2C=Cc3cc4c(cc3C21)OCO4 (stereo not drawn) |  | 3.06 µM |  | 2.1 µM |  | 2.22 µM |  |  |  | 1.97 µM |  | 2.68 µM |  | 2.2 µM |  | 2.46 µM |  | 1.63 µM | 3.09 µM |  |
| N#CCCN(CCC#N)C(=O)c1cccc(C(=O)N(CCC#N)CCC#N)c1 |  | > 100 µM |  | > 100 µM |  | > 100 µM |  | > 100 µM |  | > 100 µM |  | > 100 µM |  | > 100 µM |  | > 100 µM |  |  | > 64.8 µM |  |
| Cc1cc(=O)oc2c(CN3CCCCC3)c(O)ccc12 |  | > 100 µM |  | > 100 µM |  |  |  | > 100 µM |  | > 100 µM |  | > 100 µM |  | > 100 µM |  |  |  | > 100 µM | > 100 µM |  |
| CCC1=C(C)/C(=C/c2[nH]c(C(Br)Br)c(CC)c2C)N=C1C(Br)Br |  |  |  | > 100 µM |  | 80.4 µM |  |  |  | > 100 µM |  | 57.6 µM |  |  |  | > 100 µM |  | > 100 µM | > 100 µM |  |
| CC1(C)OC(=O)[C@@](C)([C@H](O)c2ccccc2)O1 |  | > 100 µM |  | > 100 µM |  | > 100 µM |  | > 100 µM |  | > 100 µM |  | > 100 µM |  | > 100 µM |  | > 100 µM |  |  | > 100 µM |  |
| COc1ccc(C[n+]2c3ccccc3n3c4ccc(N)cc4ccc32)c(OC)c1OC | 2.27 µM | 31.9 µM | 14.9 µM | 33.3 µM | 2.41 µM | 13.7 µM | 17.5 µM | 61.9 µM | 1.69 µM | 8.97 µM | 2.56 µM | 8.02 µM |  |  | 10.4 µM | 49.2 µM | 1.89 µM | 5.56 µM | 18.2 µM | 3.54 µM |
| [C-]#[O+].[Cl][Sn]([Cl])[Cl].[Cl][Sn]([Cl])[Cl].[Pt].c1ccc([PH+](c2ccccc2)c2ccccc2)cc1.c1ccc([PH+](c2ccccc2)c2ccccc2)cc1 | 56.1 µM | > 100 µM | 30.7 µM | > 100 µM | 42.3 µM | > 100 µM | 18.8 µM | 50.1 µM | 62.1 µM | > 100 µM | 37.7 µM | > 100 µM |  |  | 48.2 µM | > 100 µM | 69.5 µM | > 100 µM | > 100 µM | 33.8 µM |
| COc1cccc(C(=O)Nc2ccc(CN3CCc4nc5cc(OC)c(OC)cc5cc43)cc2)c1 | 3.32 µM | > 100 µM | 3.76 µM | 16.4 µM | 2.09 µM | 5.29 µM | 1.67 µM | 9.07 µM |  |  | 5.47 µM | 92.6 µM | 3 µM | 20.9 µM | 18.5 µM | > 100 µM | 7.15 µM | > 100 µM | 8.71 µM | 2.84 µM |
| CCOC(=O)c1cc(/C=C/C(C)=C/C(=O)OC)oc1-c1ccccc1 |  | > 100 µM |  | > 100 µM |  | > 100 µM |  | > 100 µM |  | > 100 µM |  | > 100 µM |  | > 100 µM |  | > 100 µM |  |  | > 100 µM |  |
| CN(C)c1ccc2c(c1)CN1C(=O)c3ccccc3C1=N2 | > 100 µM | > 100 µM | > 100 µM | > 100 µM | > 100 µM | > 100 µM |  |  | > 100 µM | > 100 µM | > 100 µM | > 100 µM |  |  | > 100 µM | > 100 µM | > 100 µM | > 100 µM | > 100 µM | > 100 µM |
| CCN(CC)C(=O)CC1=C(C)/C(=C/c2[nH]c(-c3ccc[nH]3)cc2OC)N=C1C | 0.409 µM | > 100 µM | 0.227 µM | 0.607 µM | 0.374 µM | 59.2 µM | 0.98 µM | 7.12 µM | 0.509 µM | 14.1 µM | 1.03 µM | 4.85 µM | 0.383 µM | 11.4 µM | 0.658 µM | 8.3 µM |  |  | 14.2 µM | 0.366 µM |
| NC(C/[N+]([O-])=N/O)C(=O)O (stereo not drawn) | 23.6 µM and > 100 µM and 21.2 µM | > 449 µM | 28.9 µM and 37.5 µM and 24.4 µM | > 459 µM | 0.543 µM | 31.1 µM and > 100 µM and 144 µM |  |  | 20.1 µM and 44.5 µM and 13 µM | > 100 µM and 342 µM | 18 µM and 68.2 µM and 52.5 µM | > 100 µM and 456 µM | 16.6 µM and 32.2 µM and 4.52 µM | > 100 µM and 102 µM | 58 µM and > 100 µM and 55.7 µM | > 100 µM and 300 µM | > 47.8 µM and > 100 µM and 24.5 µM | > 500 µM | > 78.3 µM and > 100 µM and 223 µM |  |
| CC1(C)C(c2ccccc2)C12CCC1(C2=O)C(c2ccccc2)C1(C)C (stereo not drawn) |  | > 100 µM |  | 75.5 µM |  |  |  | 90.7 µM |  | 43.5 µM |  | 37.4 µM |  | 60.3 µM |  |  |  | 78.3 µM |  |  |
| O=S1CSCS1 (stereo not drawn) |  | > 100 µM |  | > 100 µM |  | > 100 µM |  | > 100 µM |  | > 100 µM |  | > 100 µM |  | > 100 µM |  | > 100 µM |  | > 100 µM |  |  |
| CCOC(=O)C1=C(C)NC2SC(=O)/C(=C\c3ccccc3Cl)N2C1c1ccccc1 (stereo not drawn) |  |  | > 100 µM | > 100 µM | > 100 µM | > 100 µM | > 100 µM | > 100 µM | > 100 µM | > 100 µM | > 100 µM | > 100 µM | > 100 µM | > 100 µM | > 100 µM | > 100 µM | > 100 µM | > 100 µM | > 100 µM | > 100 µM |
